A word on the IC50: it is the concentration that gives 50% inhibition.

The structures appear in SMILES notation.

Sequence of recombinant Human Phosphodiesterase B2 (PDE4B2) (Q07343 1-564 isoform Q07343-2): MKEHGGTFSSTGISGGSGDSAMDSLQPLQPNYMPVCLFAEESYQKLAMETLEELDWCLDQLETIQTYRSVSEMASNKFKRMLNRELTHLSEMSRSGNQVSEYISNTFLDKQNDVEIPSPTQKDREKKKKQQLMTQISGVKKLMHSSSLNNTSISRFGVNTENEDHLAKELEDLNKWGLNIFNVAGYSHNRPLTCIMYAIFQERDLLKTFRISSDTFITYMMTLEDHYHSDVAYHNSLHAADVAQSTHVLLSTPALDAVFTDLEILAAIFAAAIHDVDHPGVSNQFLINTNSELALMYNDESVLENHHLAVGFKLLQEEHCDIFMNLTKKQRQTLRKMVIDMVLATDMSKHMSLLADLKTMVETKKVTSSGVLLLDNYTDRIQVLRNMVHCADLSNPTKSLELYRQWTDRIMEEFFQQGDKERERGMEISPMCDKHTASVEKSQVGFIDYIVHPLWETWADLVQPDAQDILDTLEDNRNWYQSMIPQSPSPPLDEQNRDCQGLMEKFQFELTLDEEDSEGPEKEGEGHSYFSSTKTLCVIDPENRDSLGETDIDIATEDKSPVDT

The target of the assay is recombinant Human Phosphodiesterase B2 (PDE4B2) (Homo sapiens, UniProt Q07343). The assay is described as follows: Human Phosphodiesterase B2 Alpha Screen Assay. The class given is biochemical. The settings on record: recombinant human PDE4B2, cAMP substrate, 60 min at room temperature. On the procedure:
Human Phosphodiesterase B2 Alpha Screen Assay
The assay uses recombinant Human Phosphodiesterase B2 (PDE4B2) produced in house (PrAZL0133), stored at −20° C. The substrate uses cAMP, part of the Alpha Screen cAMP kit (Perkin Elmer, Cat #6760625M), stored at 4° C. The Alpha Screen kit also includes biotinylated cAMP, acceptor and donor beads.
The assay additions were as follows: Test compounds and controls were added to white 384-well flat-bottom plates (Greiner, Cat #781075), 0.2 μl in 100% DMSO, followed by 10 μl PDE4B2 in reaction buffer. The reaction buffer constitution was: 50 mM Tris (pH 7.5), 8.3 mM MgCl2, 1.7 mM EGTA and 0.01% (w/v) Brij®35. The enzyme and the compounds were incubated at room temperature for 15 minutes. Then 10 μl cAMP in reaction buffer was added. The assay was stopped after 60 minutes incubation at room temperature by adding 10 μl acceptor beads in detection buffer with 40 mM EDTA. The detection buffer constitution was: 5 mM Tris (pH 7.5), 0.1% (w/v) BSA and 0.1% (v/v) Tween 20. This addition followed by an addition of 10 μl donor beads in detection buffer, with biotinylated cAMP. The plates were then incubated, dark at room temperature, for 5 hours followed by measurement on a Fusion™-α analyser. IC50 values (presented in Table 1) were determined using Xlfit curve fitting using model 205.
For `CCc1nn(C2CCCC2)c2c1C(=O)NCC(c1ccccc1)=N2` [Example 1, 1-Cyclopentyl-3-ethyl-7-phenyl-5,6-dihydropyrazolo[3,4-e][1,4]diazepin-4(1H)-one], the IC50 is 0.33 nM.
Next, `CCc1nn(C2CCCC2)c2c1C(=O)NCC(c1ccc(Br)cc1)=N2` [Example 8, 7-(4-Bromophenyl)-1-cyclopentyl-3-ethyl-5,6-dihydropyrazolo[3,4-e][1,4]diazepin-4(1H)-one]: 0.84 nM.
On to `CCc1nn(C2CCCC2)c2c1C(=O)NCC(c1ccc(F)cc1)=N2` [Example 21, 1-Cyclopentyl-3-ethyl-7-(4-fluorophenyl)-5,6-dihydropyrazolo[3,4-e][1,4]diazepin-4(1H)-one], for which the IC50 stood at 1.05 nM.
`Cc1nn(C2CCCC2)c2c1C(=O)NCC(c1ccccc1)=N2` [Example 36, 1-Cyclopentyl-3-methyl-7-phenyl-5,6-dihydropyrazolo[3,4-e][1,4]diazepin-4(1H)-one]: the IC50 came out at 9.49 nM.
For `CCc1nn(C2CCCC2)c2c1C(=O)NCC(c1ccccc1)N2` (stereo not drawn) [Example 30, 1-Cyclopentyl-3-ethyl-7-phenyl-5,6,7,8-tetrahydropyrazolo[3,4-e][1,4]diazepin-4(1H)-one], the IC50 was determined as 158 nM.
As to `CCc1nn(C2CCCC2)c2c1C(=O)NCC(c1cc(OC)ccc1OC)=N2` [Example 14, 1-Cyclopentyl-7-(2,5-dimethoxyphenyl)-3-ethyl-5,6-dihydropyrazolo[3,4-e][1,4]diazepin-4(1H)-one], the 50% inhibitory concentration (IC50) came to 0.5 nM.
In the case of `CCc1nn(C2CCSCC2)c2c1C(=O)NCC(c1ccccc1)=N2` [Example 33, 3-Ethyl-7-phenyl-1-tetrahydro-2H-thiopyran-4-yl-5,6-dihydropyrazolo[3,4-e][1,4]diazepin-4(1H)-one], the IC50 came to 3.9 nM.
`CCc1nn(C2CCCC2)c2c1C(=O)NCC(c1cccc(OC)c1)=N2` [Example 19, 1-Cyclopentyl-3-ethyl-7-(3-methoxyphenyl)-5,6-dihydropyrazolo[3,4-e][1,4]diazepin-4(1H)-one]: the IC50 amounted to 0.55 nM.
Turning to `CCc1nn(C2CCCC2)c2c1C(=O)NCC(c1ccc(F)c(F)c1)=N2` [Example 13, 7-(3,4-Difluorophenyl)-1-cyclopentyl-3-ethyl-5,6-dihydropyrazolo[3,4-e][1,4]diazepin-4(1H)-one], the IC50 was found to be 0.73 nM.

For the origin of these results see patent US20090054413A1, “Novel 5,6-Dihydropyrazolo[3,4-E] [L,4]Diazepin-4 (IH) -One Derivatives for the Treatment of Asthma and Chronic Obstructive Pulmonary Disease” (AstraZeneca AB, priority 2005, published 2009).
